The assay deals with T1, LRRK2 (endogenous, HiBit tagged) (Homo sapiens, UniProt Q5S007).
T1 construct: endogenous in cells; host or cells: HEK293 cells with HiBit knock-in at the endogenous LRRK2 locus, stably expressing firefly luciferase
Description: Endogenous LRRK2 degradation assay, endogenous gene C-terminally HiBit-tagged in HEK293 cells (Nano-Glo Dual Luciferase). It is filed as cell-based. Conditions: endogenous HiBit-tagged LRRK2 in HEK293 cells. The gist of the method: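 LRRK2-HiBit quantified via Nano-Glo Dual Luciferase in HEK293 knock-in cells co-expressing firefly luciferase, after 24 h exposure to compound (1 μM final top, 1:3, 11 points). Values normalised to DMSO median per plate and curve-fitted; Alamar Blue viability run alongside.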

Setting [1] is: 24 hours treatment, read-out: Endogenous WT DC50.
The mark [2] stands for this setting: 24 hours treatment, read-out: Endogenous WT Dmax.
The mark [3] stands for this setting: 24 hours treatment, read-out: **Endogenous WT Dmax (%).
Setting [4] is: 24 hours treatment, read-out: *Endogenous WT DC50.
Setting [5] is: 24 hours, read-out: **Endogenous WT Dmax (%).
[6] abbreviates: 24 hours, read-out: *Endogenous WT DC50.

Like-named read-outs stand apart in the source and are kept apart here. Where only a bound is given, the exact number is not on record here.

T1 sequence (Q5S007 whole entry): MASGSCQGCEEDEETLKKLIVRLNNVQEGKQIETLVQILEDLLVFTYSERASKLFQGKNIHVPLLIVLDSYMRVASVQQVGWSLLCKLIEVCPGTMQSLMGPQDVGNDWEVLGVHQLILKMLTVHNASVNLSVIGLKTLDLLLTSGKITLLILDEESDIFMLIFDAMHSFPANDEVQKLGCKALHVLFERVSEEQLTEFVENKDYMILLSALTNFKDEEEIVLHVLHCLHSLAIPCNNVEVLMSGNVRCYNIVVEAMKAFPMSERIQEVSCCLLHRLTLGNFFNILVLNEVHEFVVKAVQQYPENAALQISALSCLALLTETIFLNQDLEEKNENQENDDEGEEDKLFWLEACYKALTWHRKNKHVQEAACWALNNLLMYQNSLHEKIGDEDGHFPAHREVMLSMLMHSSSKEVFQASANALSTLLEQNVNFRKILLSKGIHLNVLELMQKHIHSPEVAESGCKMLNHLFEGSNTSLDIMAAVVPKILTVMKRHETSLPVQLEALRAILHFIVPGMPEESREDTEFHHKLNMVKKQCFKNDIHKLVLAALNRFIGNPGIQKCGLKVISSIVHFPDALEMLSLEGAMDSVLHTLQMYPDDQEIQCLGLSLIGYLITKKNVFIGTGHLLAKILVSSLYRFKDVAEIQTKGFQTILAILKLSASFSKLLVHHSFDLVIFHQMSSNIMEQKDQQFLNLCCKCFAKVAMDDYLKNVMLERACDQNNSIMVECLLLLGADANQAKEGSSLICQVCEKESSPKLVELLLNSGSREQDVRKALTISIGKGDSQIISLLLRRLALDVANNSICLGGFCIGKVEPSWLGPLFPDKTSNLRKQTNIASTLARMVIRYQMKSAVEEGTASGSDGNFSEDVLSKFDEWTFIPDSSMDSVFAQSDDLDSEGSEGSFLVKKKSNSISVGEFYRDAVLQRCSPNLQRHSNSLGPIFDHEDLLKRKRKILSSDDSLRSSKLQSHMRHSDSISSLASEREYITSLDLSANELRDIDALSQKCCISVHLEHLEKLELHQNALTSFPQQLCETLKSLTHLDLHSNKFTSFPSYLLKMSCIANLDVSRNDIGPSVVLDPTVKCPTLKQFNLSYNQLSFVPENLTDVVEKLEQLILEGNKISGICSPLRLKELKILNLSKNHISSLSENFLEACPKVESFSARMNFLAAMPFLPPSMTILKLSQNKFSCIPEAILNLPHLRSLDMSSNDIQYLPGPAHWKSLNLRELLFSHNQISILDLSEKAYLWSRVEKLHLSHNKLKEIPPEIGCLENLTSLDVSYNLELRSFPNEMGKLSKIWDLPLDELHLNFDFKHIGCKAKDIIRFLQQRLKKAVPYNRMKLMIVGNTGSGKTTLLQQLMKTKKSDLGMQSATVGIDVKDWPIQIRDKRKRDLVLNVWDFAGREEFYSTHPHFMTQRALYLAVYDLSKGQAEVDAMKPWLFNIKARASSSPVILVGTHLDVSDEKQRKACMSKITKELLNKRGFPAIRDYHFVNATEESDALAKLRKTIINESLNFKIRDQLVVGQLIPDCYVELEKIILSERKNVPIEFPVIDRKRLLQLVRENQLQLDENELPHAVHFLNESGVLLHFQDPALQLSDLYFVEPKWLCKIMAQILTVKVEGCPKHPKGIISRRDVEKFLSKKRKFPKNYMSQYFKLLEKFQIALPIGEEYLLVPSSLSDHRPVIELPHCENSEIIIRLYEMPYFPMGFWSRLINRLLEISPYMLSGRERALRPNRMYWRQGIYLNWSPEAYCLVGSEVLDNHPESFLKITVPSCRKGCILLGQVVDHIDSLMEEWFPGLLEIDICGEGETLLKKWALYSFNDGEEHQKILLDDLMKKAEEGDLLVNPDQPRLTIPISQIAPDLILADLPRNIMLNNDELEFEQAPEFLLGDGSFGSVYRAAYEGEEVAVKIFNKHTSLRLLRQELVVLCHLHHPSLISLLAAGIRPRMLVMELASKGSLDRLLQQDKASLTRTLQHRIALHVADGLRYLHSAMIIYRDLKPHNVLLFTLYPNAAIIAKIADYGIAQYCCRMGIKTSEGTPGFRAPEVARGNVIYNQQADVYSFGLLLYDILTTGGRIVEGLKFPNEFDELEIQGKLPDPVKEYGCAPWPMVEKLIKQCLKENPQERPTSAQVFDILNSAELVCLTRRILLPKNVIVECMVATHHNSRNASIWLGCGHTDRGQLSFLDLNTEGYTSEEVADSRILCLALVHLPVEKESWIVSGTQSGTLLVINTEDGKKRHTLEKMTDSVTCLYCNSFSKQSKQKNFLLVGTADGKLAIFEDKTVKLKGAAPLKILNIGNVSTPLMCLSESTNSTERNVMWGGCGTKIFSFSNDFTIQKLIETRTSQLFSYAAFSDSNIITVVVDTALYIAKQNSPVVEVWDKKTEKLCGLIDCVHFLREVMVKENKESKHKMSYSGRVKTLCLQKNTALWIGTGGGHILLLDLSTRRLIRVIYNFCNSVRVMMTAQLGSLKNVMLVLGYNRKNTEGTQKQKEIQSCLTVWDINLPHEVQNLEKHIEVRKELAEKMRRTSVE

As for `CC1(Oc2cc3c(-c4cc(N5CCC(O[C@H]6CC[C@H](CN7CCN(c8ccc9c(c8F)CN(C8CCC(=O)NC8=O)C9=O)CC7)CC6)CC5)ncn4)n[nH]c3cn2)CC1` (some centres unmarked) [Compound 254, 3-[4-fluoro-1-oxo-5-(4-{[(1r,4r)-4-[(1-{6-[5-(1-methylcyclopropoxy)-1H-pyrazolo[3,4-c]pyridin-3-yl]pyrimidin-4-yl}piperidin-4-yl)oxy]cyclohexyl]methyl}piperazin-1-yl)-2,3-dihydro-1H-isoindol-2-yl]piperidine-2,6-dione], under setting [1], the DC50 (as a rule, the concentration at which degradation of the target reaches its halfway point) was less than 10 nM. Also, the greatest degradation seen (Dmax) (as a rule, the greatest extent of degradation seen) under setting [2] was in the range of 50 to 70%.
As to `COc1c(N2CCN(C[C@H]3CC[C@H](CN4CCN(c5cc(-c6n[nH]c7ccc(OC8(C)CC8)cc67)ncn5)CC4)CC3)CC2)ccc2c1CN(C1CCC(=O)NC1=O)C2=O` (some centres unmarked) [Compound 265, 3-[4-methoxy-1-oxo-5-(4-{[(1r,4r)-4-[(4-{6-[5-(1-methylcyclopropoxy)-1H-indazol-3-yl]pyrimidin-4-yl}piperazin-1-yl)methyl]cyclohexyl]methyl}piperazin-1-yl)-2,3-dihydro-1H-isoindol-2-yl]piperidine-2,6-dione], the greatest degradation seen (Dmax) under setting [3] was not below 70%. The DC50 under setting [4] is less than 10 nM.
Turning to `C[C@H]1CN(CC2CCN(c3cc(-c4n[nH]c5ccc(OC6(C)CC6)cc45)ncn3)CC2)CCN1CC1CCN(c2ccc3c(c2F)CN(C2CCC(=O)NC2=O)C3=O)CC1` (stereo partly drawn) [Compound 222, 3-[4-fluoro-5-(4-{[(2S)-2-methyl-4-[(1-{6-[5-(1-methylcyclopropoxy)-1H-indazol-3-yl]pyrimidin-4-yl}piperidin-4-yl)methyl]piperazin-1-yl]methyl}piperidin-1-yl)-1-oxo-2,3-dihydro-1H-isoindol-2-yl]piperidine-2,6-dione], the DC50 under setting [1] is less than 10 nM. Besides, the Dmax under setting [2] was not below 70%.
With `C[C@H]1CN(c2cc(-c3[nH]nc4ccc(OC5(C)CC5)cc34)ncn2)CCN1CCN1CCN(CC2CCN(c3ccc4c(c3)CN(C3CCC(=O)NC3=O)C4=O)CC2)CC1` (stereo partly drawn) [Compound 65, 3-(5-{4-[(4-{2-[(2S)-2-methyl-4-{6-[5-(1-methylcyclopropoxy)-2H-indazol-3-yl]pyrimidin-4-yl}piperazin-1-yl]ethyl}piperazin-1-yl)methyl]piperidin-1-yl}-1-oxo-2,3-dihydro-1H-isoindol-2-yl)piperidine-2,6-dione], the Dmax under setting [5] is not below 70%. Also, the DC50 under setting [6] is less than 10 nM.
In the case of `CC1(Oc2ccc3[nH]nc(-c4cc(N5CCC(CCN6CCC7(CN(c8ccc9c(c8F)CN(C8CCC(=O)NC8=O)C9=O)C7)C(F)(F)C6)CC5)ncn4)c3c2)CC1` (centres unmarked) [Compound 376, 3-(5-{5,5-difluoro-7-[2-(1-{6-[5-(1-methylcyclopropoxy)-1H-indazol-3-yl]pyrimidin-4-yl}piperidin-4-yl)ethyl]-2,7-diazaspiro[3.5]nonan-2-yl}-4-fluoro-1-oxo-2,3-dihydro-1H-isoindol-2-yl)piperidine-2,6-dione], the DC50 under setting [1] was less than 10 nM. In addition, under setting [2], the Dmax fell in the range of 50 to 70%.
As to `COc1c(N2CCC(CN3CC[C@H](OC4CCN(c5cc(-c6n[nH]c7ccc(OC8(C)CC8)cc67)ncn5)CC4)CC3(C)C)CC2)ccc2c1CN(C1CCC(=O)NC1=O)C2=O` (stereo partly drawn) [Compound 325, 3-(5-(4-(((S)-2,2-dimethyl-4-((1-(6-(5-(1-methylcyclopropoxy)-1H-indazol-3-yl)pyrimidin-4-yl)piperidin-4-yl)oxy)piperidin-1-yl)methyl)piperidin-1-yl)-4-methoxy-1-oxoisoindolin-2-yl)piperidine-2,6-dione], the Dmax under setting [3] was 50 to 70%. Also, the DC50 under setting [4] was less than 10 nM.
Consider `C[C@H]1CN(c2cc(-c3n[nH]c4ccc(OC5(C)CC5)cc34)ncn2)CCN1C[C@H]1CC[C@H](OC2CCN(c3ccc4c(c3F)CN(C3CCC(=O)NC3=O)C4=O)CC2)CC1` (stereo partly drawn) [Compound 348, 3-(4-fluoro-5-(4-(((1s,4r)-4-(((S)-2-methyl-4-(6-(5-(1-methylcyclopropoxy)-1H-indazol-3-yl)pyrimidin-4-yl)piperazin-1-yl)methyl)cyclohexyl)oxy)piperidin-1-yl)-1-oxoisoindolin-2-yl)piperidine-2,6-dione], for which the Dmax under setting [3] was in the range of 50 to 70%. In addition, the DC50 under setting [4] was less than 10 nM.
Turning to `COc1c(N2CCC3(CC2)CN([C@H]2C[C@H](OC4CCN(c5cc(-c6[nH]nc7ccc(OC8(C)CC8)cc67)ncn5)CC4)C2)C3)ccc2c1CN(C1CCC(=O)NC1=O)C2=O` (some centres unmarked) [Compound 315, 3-(4-methoxy-1-oxo-5-{2-[(1r,3r)-3-[(1-{6-[5-(1-methylcyclopropoxy)-2H-indazol-3-yl]pyrimidin-4-yl}piperidin-4-yl)oxy]cyclobutyl]-2,7-diazaspiro[3.5]nonan-7-yl}-2,3-dihydro-1H-isoindol-2-yl)piperidine-2,6-dione], the greatest degradation seen (Dmax) under setting [3] is 50 to 70%. In addition, the DC50 under setting [4] was less than 10 nM.
The like results for `CC1(Oc2ccc3n[nH]c(-c4cc(N5CCN(CC6(F)CN(CC7CCN(c8ccc9c(c8F)CN(C8CCC(=O)NC8=O)C9=O)CC7)C6)CC5)ncn4)c3c2)CC1` (centres unmarked) [Compound 306, 3-{4-fluoro-5-[4-({3-fluoro-3-[(4-{6-[5-(1-methylcyclopropoxy)-2H-indazol-3-yl]pyrimidin-4-yl}piperazin-1-yl)methyl]azetidin-1-yl}methyl)piperidin-1-yl]-1-oxo-2,3-dihydro-1H-isoindol-2-yl}piperidine-2,6-dione] were, in that order, 50 to 70% and less than 10 nM.
In the case of `COc1c(N2CCC(O[C@H]3CC[C@H](CN4CCN(c5cc(-c6n[nH]c7ccc(OC8(C)CC8)cc67)ncn5)CC4(C)C)CC3)CC2)ccc2c1CN(C1CCC(=O)NC1=O)C2=O` (some centres unmarked) [Compound 382, 3-[4-methoxy-1-oxo-5-(4-{[(1r,4r)-4-[(2,2-dimethyl-4-{6-[5-(1-methylcyclopropoxy)-1H-indazol-3-yl]pyrimidin-4-yl}piperazin-1-yl)methyl]cyclohexyl]oxy}piperidin-1-yl)-2,3-dihydro-1H-isoindol-2-yl]piperidine-2,6-dione], the DC50 under setting [1] lay in the range of 10 to 50 nM. The Dmax under setting [2] lay within 50 to 70%.
For the compound `CC1(Oc2ccc3n[nH]c(-c4cc(N5CCC(CO[C@H]6CC[C@H](CN7CCN(c8ccc9c(c8)C(=O)N(C8CCC(=O)NC8=O)C9=O)CC7)CC6)CC5)ncn4)c3c2)CC1` (some centres unmarked) [Compound 60, 2-(2,6-dioxo-3-piperidyl)-5-[4-[[4-[[1-[6-[5-(1-methylcyclopropoxy)-2H-indazol-3-yl]pyrimidin-4-yl]-4-piperidyl]methoxy]cyclohexyl]methyl]piperazin-1-yl]isoindoline-1,3-dione], the Dmax under setting [5] was not below 70%. Further, the DC50 under setting [6] was less than 10 nM.
For `COc1c(N2CCC(CN3CCN(CC4CCN(c5cc(-c6n[nH]c7cc(F)c(OC8(C)CC8)cc67)ncn5)CC4)CC3(C)C)CC2)ccc2c1CN(C1CCC(=O)NC1=O)C2=O` (centres unmarked) [Compound 279, 3-{5-[4-({4-[(1-{6-[6-fluoro-5-(1-methylcyclopropoxy)-1H-indazol-3-yl]pyrimidin-4-yl}piperidin-4-yl)methyl]-2,2-dimethylpiperazin-1-yl}methyl)piperidin-1-yl]-4-methoxy-1-oxo-2,3-dihydro-1H-isoindol-2-yl}piperidine-2,6-dione], under setting [3], the Dmax was not below 70%. The DC50 under setting [4] is less than 10 nM.
On to `CC1(Oc2ccc3n[nH]c(-c4cc(N5CCC(O[C@H]6CC[C@H](CN7CCN(c8cc9c(cc8F)C(=O)N(C8CCC(=O)NC8=O)C9)CC7)CC6)CC5)ncn4)c3c2)CC1` (some centres unmarked) [Compound 208, 3-[6-fluoro-5-[4-[[4-[[1-[6-[5-(1-methylcyclopropoxy)-2H-indazol-3-yl]pyrimidin-4-yl]-4-piperidyl]oxy]cyclohexyl]methyl]piperazin-1-yl]-1-oxo-isoindolin-2-yl]piperidine-2,6-dione], for which the DC50 under setting [1] was less than 10 nM. Further, under setting [2], the Dmax was 50 to 70%.
For `CC1(Oc2ccc3[nH]nc(-c4cc(N5CCC(CN6C7CC6CN(CC6CCN(c8ccc9c(c8F)CN(C8CCC(=O)NC8=O)C9=O)CC6)C7)CC5)ncn4)c3c2)CC1` (centres unmarked) [Compound 237, 3-{4-fluoro-5-[4-({6-[(1-{6-[5-(1-methylcyclopropoxy)-1H-indazol-3-yl]pyrimidin-4-yl}piperidin-4-yl)methyl]-3,6-diazabicyclo[3.1.1]heptan-3-yl}methyl)piperidin-1-yl]-1-oxo-2,3-dihydro-1H-isoindol-2-yl}piperidine-2,6-dione] the same measures were less than 10 nM and not below 70%.
As for `CC1(Oc2ccc3n[nH]c(-c4cc(N5CCN(C[C@H]6C[C@H](OC7CCN(c8ccc9c(c8F)CN(C8CCC(=O)NC8=O)C9=O)CC7)C6)CC5)ncn4)c3c2)CC1` (some centres unmarked) [Compound 300, 3-(4-fluoro-1-oxo-5-{4-[(1r,3r)-3-[(4-{6-[5-(1-methylcyclopropoxy)-2H-indazol-3-yl]pyrimidin-4-yl}piperazin-1-yl)methyl]cyclobutoxy]piperidin-1-yl}-2,3-dihydro-1H-isoindol-2-yl)piperidine-2,6-dione], under setting [3], the Dmax lay in the range of 50 to 70%. Moreover, the DC50 under setting [4] is less than 10 nM.
For `Cc1c(N2CCC(O[C@H]3CC[C@H](CN4CCN(c5cc(-c6n[nH]c7ccc(OC8(C)CC8)cc67)ncn5)CC4)CC3)CC2)ccc2c1CN(C1CCC(=O)NC1=O)C2=O` (some centres unmarked) [Compound 333, 3-(4-methyl-5-(4-(((1r,4r)-4-((4-(6-(5-(1-methylcyclopropoxy)-1H-indazol-3-yl)pyrimidin-4-yl)piperazin-1-yl)methyl)cyclohexyl)oxy)piperidin-1-yl)-1-oxoisoindolin-2-yl)piperidine-2,6-dione] the same measures were 50 to 70% and less than 10 nM.

The values are drawn from patent US12559506B2, “Indazole based compounds and associated methods of use” (Arvinas Operations, Inc., priority 2021, dated 2026).
